Measured values published in ChEMBL document CHEMBL2146458, “Tanshinones as selective and slow-binding inhibitors for SARS-CoV cysteine proteases” (Bioorg Med Chem, 2012).
Calls of active or inactive are those of the source. No cut-off for these calls is given here.

molecular target: Replicase polyprotein 1a (Severe acute respiratory syndrome-related coronavirus) (UniProt P0C6U8); conditions: not given

| Compound | inhibition |
| --- | --- |
| Cc1coc2c1C(=O)C(=O)c1c-2ccc2c1CCCC2(C)C [TANSHINONE IIA] | Active |
| Cc1coc2c1C(=O)C(=O)c1c-2ccc2c1CCCC2(C)CO (stereo not drawn) [TANSHINONE IIB] | Active |
| Cc1coc2c1C(=O)C(=O)c1c-2ccc2c(C)cccc12 [TANSHINONE I] | Active |

molecular target: T1, Papain (Carica papaya, UniProt P00784); experiment: Inhibition of papaya papain using N-alpha-benzoyl-L-arginine-pnitroanilide as substrate after 5 mins; conditions: not given
T1 sequence (P00784 whole entry): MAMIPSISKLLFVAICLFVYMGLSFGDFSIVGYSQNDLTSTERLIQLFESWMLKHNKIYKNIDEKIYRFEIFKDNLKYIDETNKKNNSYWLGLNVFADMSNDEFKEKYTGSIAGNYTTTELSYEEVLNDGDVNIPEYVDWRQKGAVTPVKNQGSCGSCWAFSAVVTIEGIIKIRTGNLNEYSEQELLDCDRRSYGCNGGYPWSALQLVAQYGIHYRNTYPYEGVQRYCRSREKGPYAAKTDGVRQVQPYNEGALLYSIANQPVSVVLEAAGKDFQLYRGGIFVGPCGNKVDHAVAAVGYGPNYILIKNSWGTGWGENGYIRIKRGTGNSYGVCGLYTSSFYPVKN

| Compound | IC50 [µM] |
| --- | --- |
| Cc1coc2c1C(=O)C(=O)c1c-2ccc2c1CCCC2(C)C [TANSHINONE IIA] | 122 |

molecular target: Replicase polyprotein 1a (Severe acute respiratory syndrome-related coronavirus) (UniProt P0C6U8); conditions: not given; remark: another data set of the same source

| Compound | inhibition |
| --- | --- |
| Cc1coc2c1C(=O)C(=O)c1c-2ccc2c1CCCC2(C)C [TANSHINONE IIA] | Active |
| Cc1coc2c1C(=O)C(=O)c1c-2ccc2c1CCCC2(C)CO (stereo not drawn) [TANSHINONE IIB] | Active |
| Cc1coc2c1C(=O)C(=O)c1c-2ccc2c(C)cccc12 [TANSHINONE I] | Active |

molecular target: Replicase polyprotein 1a (Severe acute respiratory syndrome-related coronavirus) (UniProt P0C6U8); conditions: not given; remark: another data set of the same source

| Compound | inhibition |
| --- | --- |
| Cc1coc2c1C(=O)C(=O)c1c-2ccc2c1CCCC2(C)C [TANSHINONE IIA] | Dose-dependent effect |
| Cc1coc2c1C(=O)C(=O)c1c-2ccc2c1CCCC2(C)CO (stereo not drawn) [TANSHINONE IIB] | Dose-dependent effect |
| Cc1coc2c1C(=O)C(=O)c1c-2ccc2c(C)cccc12 [TANSHINONE I] | Dose-dependent effect |

molecular target: T2, Replicase polyprotein 1a (Severe acute respiratory syndrome-related coronavirus, UniProt P0C6U8); conditions: not given

| Compound | IC50 [µM] |
| --- | --- |
| Cc1coc2c1C(=O)C(=O)c1c-2ccc2c1CCCC2(C)C [TANSHINONE IIA] | 89.1 |
| Cc1coc2c1C(=O)C(=O)c1c-2ccc2c1CCCC2(C)CO (stereo not drawn) [TANSHINONE IIB] | 24.8 |
| Cc1coc2c1C(=O)C(=O)c1c-2ccc2c(C)cccc12 [TANSHINONE I] | 38.7 |

molecular target: Replicase polyprotein 1a (Severe acute respiratory syndrome-related coronavirus) (UniProt P0C6U8); conditions: TDE = time-dependent effect

| Compound | inhibition |
| --- | --- |
| Cc1coc2c1C(=O)C(=O)c1c-2ccc2c1CCCC2(C)C [TANSHINONE IIA] | tde |
| Cc1coc2c1C(=O)C(=O)c1c-2ccc2c1CCCC2(C)CO (stereo not drawn) [TANSHINONE IIB] | tde |
| Cc1coc2c1C(=O)C(=O)c1c-2ccc2c(C)cccc12 [TANSHINONE I] | tde |

molecular target: Protease (Human immunodeficiency virus 1, UniProt Q9YQ12); experiment: Inhibition of Human immunodeficiency virus 1 protease preincubated for 10 mins by FRET assay; conditions: not given
Sequence (Q9YQ12 whole entry): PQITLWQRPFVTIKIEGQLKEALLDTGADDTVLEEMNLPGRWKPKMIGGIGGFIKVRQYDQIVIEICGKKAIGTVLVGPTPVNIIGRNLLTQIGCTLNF

| Compound | IC50 [µM] |
| --- | --- |
| Cc1coc2c1C(=O)C(=O)c1c-2ccc2c1CCCC2(C)C [TANSHINONE IIA] | 59.2 |
| Cc1coc2c1C(=O)C(=O)c1c-2ccc2c(C)cccc12 [TANSHINONE I] | 45.9 |

system: not listed separately; experiment: Inhibition of chymotrypsin using N-benzoyl-L-tyrosine ethyl ester as substrate assessed as benzoyl-tyrosine production at 200 uM measured every 10 seconds for 6 mins; conditions: not given

| Compound | inhibition |
| --- | --- |
| Cc1coc2c1C(=O)C(=O)c1c-2ccc2c1CCCC2(C)CO (stereo not drawn) [TANSHINONE IIB] | inactive |

molecular target: Replicase polyprotein 1a (Severe acute respiratory syndrome-related coronavirus) (UniProt P0C6U8); conditions: 200 uM

| Compound | inhibition [%] |
| --- | --- |
| O=C(/C=C/c1cc(O)cc2c1[C@H](C(O)O[C@H](Cc1ccc(O)c(O)c1)C(=O)O)[C@@H](c1ccc(O)c(O)c1)O2)O[C@H](Cc1ccc(O)c(O)c1)C(=O)O (stereo partly drawn) | 30 |

molecular target: T3, Papain (Carica papaya) (UniProt P00784); experiment: Inhibition of papaya papain using N-alpha-benzoyl-L-arginine-pnitroanilide as substrate at 200 uM after 5 mins; conditions: not given
T3 sequence (whole entry): T1 sequence (P00784 whole entry)

| Compound | inhibition |
| --- | --- |
| Cc1coc2c1C(=O)C(=O)c1c-2ccc2c1CCCC2(C)CO (stereo not drawn) [TANSHINONE IIB] | inactive |
| Cc1coc2c1C(=O)C(=O)c1c-2ccc2c(C)cccc12 [TANSHINONE I] | inactive |

molecular target: Replicase polyprotein 1a (Severe acute respiratory syndrome-related coronavirus) (UniProt P0C6U8); conditions: not given; remark: another data set of the same source

| Compound | inhibition |
| --- | --- |
| Cc1coc2c1C(=O)C(=O)c1c-2ccc2c1CCCC2(C)C [TANSHINONE IIA] | Active |
| Cc1coc2c1C(=O)C(=O)c1c-2ccc2c1CCCC2(C)CO (stereo not drawn) [TANSHINONE IIB] | Active |
| Cc1coc2c1C(=O)C(=O)c1c-2ccc2c(C)cccc12 [TANSHINONE I] | Active |

molecular target: Replicase polyprotein 1a (Severe acute respiratory syndrome-related coronavirus) (UniProt P0C6U8); conditions: 200 uM; remark: another data set of the same source

| Compound | inhibition |
| --- | --- |
| Cc1coc2c1C(=O)C(=O)c1c-2ccc2c1CCCC2(C)C [TANSHINONE IIA] | inactive |

molecular target: Protease (Human immunodeficiency virus 1) (UniProt Q9YQ12); experiment: Inhibition of Human immunodeficiency virus 1 protease at 200 uM preincubated for 10 mins by FRET assay; conditions: not given
Sequence (Q9YQ12 as listed by the source): as the sequence (Q9YQ12 whole entry) above

| Compound | inhibition |
| --- | --- |
| Cc1coc2c1C(=O)C(=O)c1c-2ccc2c1CCCC2(C)CO (stereo not drawn) [TANSHINONE IIB] | inactive |

molecular target: T2, Replicase polyprotein 1a; conditions: not given; remark: another data set of the same source

| Compound | IC50 [µM] |
| --- | --- |
| Cc1coc2c1C(=O)C(=O)c1c-2ccc2c1CCCC2(C)C [TANSHINONE IIA] | 17.1 |
| Cc1coc2c1C(=O)C(=O)c1c-2ccc2c1CCCC2(C)CO (stereo not drawn) [TANSHINONE IIB] | 18 |
| Cc1coc2c1C(=O)C(=O)c1c-2ccc2c(C)cccc12 [TANSHINONE I] | 11.5 |

system: not listed separately; experiment: Inhibition of chymotrypsin using N-benzoyl-L-tyrosine ethyl ester as substrate assessed as benzoyl-tyrosine production measured every 10 seconds for 6 mins; conditions: not given

| Compound | IC50 [µM] |
| --- | --- |
| Cc1coc2c1C(=O)C(=O)c1c-2ccc2c1CCCC2(C)C [TANSHINONE IIA] | 68.3 |
| Cc1coc2c1C(=O)C(=O)c1c-2ccc2c(C)cccc12 [TANSHINONE I] | 103 |

molecular target: Replicase polyprotein 1a (Severe acute respiratory syndrome-related coronavirus) (UniProt P0C6U8); conditions: 1 to 100 uM

| Compound | inhibition |
| --- | --- |
| Cc1coc2c1C(=O)C(=O)c1c-2ccc2c1CCCC2(C)C [TANSHINONE IIA] | inactive |
| Cc1coc2c1C(=O)C(=O)c1c-2ccc2c1CCCC2(C)CO (stereo not drawn) [TANSHINONE IIB] | inactive |
| Cc1coc2c1C(=O)C(=O)c1c-2ccc2c(C)cccc12 [TANSHINONE I] | inactive |

molecular target: T2, Replicase polyprotein 1a; conditions: not given; remark: another data set of the same source

| Compound | IC50 [µM] |
| --- | --- |
| Cc1coc2c1C(=O)C(=O)c1c-2ccc2c1CCCC2(C)CO (stereo not drawn) [TANSHINONE IIB] | 52 |
| Cc1coc2c1C(=O)C(=O)c1c-2ccc2c(C)cccc12 [TANSHINONE I] | 0.7 |

molecular target: T2, Replicase polyprotein 1a; conditions: read-out: Ki(app)

| Compound | Ki [µM] |
| --- | --- |
| Cc1coc2c1C(=O)C(=O)c1c-2ccc2c1CCCC2(C)C [TANSHINONE IIA] | 11.2 |
| Cc1coc2c1C(=O)C(=O)c1c-2ccc2c1CCCC2(C)CO (stereo not drawn) [TANSHINONE IIB] | 21.6 |
| Cc1coc2c1C(=O)C(=O)c1c-2ccc2c(C)cccc12 [TANSHINONE I] | 13.7 |

molecular target: T2, Replicase polyprotein 1a; conditions: not given; remark: another data set of the same source

| Compound | IC50 [µM] |
| --- | --- |
| Cc1coc2c1C(=O)C(=O)c1c-2ccc2c1CCCC2(C)C [TANSHINONE IIA] | 1.6 |
| Cc1coc2c1C(=O)C(=O)c1c-2ccc2c1CCCC2(C)CO (stereo not drawn) [TANSHINONE IIB] | 10.7 |
| Cc1coc2c1C(=O)C(=O)c1c-2ccc2c(C)cccc12 [TANSHINONE I] | 8.8 |
